# Earlier results in patent publication US20100104638A1 (priority 2008, published 2010).
smiles,measurement,value
"CC(=O)Nc1ccc(O)cc1 [Acetaminophen, N-(4-hydroxyphenyl) acetamide]",Aqueous solubility,about 14 mg/ml
